Laboratory results reported in patent US7118895B2, “Process for producing aglycon by using diglycosidase and flavor-improved food containing the aglycon and converting agent to be used in the process” (Amano Enzyme Inc., priority 2000, dated 2006).

System: Crude diglycosidase
Experiment: Examination of pH in the conversion into isoflavone aglycons by diglycosidase using soybean materials
Assay type: biochemical, Penicillium multicolor IAM7153
Parameters: Decomposition efficiency of genistin family in soymilk / Decomposition efficiency of genistin family in defatted soybean / Decomposition efficiency of daidzin family in defatted soybean: concentration or dose not given beside the values
Settings: for Decomposition efficiency of daidzin family in roasted soy flour: 55° C.
Method in brief: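 HPLC readout: isoflavone glycosides vs aglycons. Substrates: 50 mg soy material (roasted flour, soymilk, defatted bean, concentrated protein), pH 2–11 (HCl/NaOH). Crude diglycosidase solution 1.88 AU/mL, matched pH; 55° C; quenched with ethanol at 0/1/3/6 h; centrifuged 15,000 rpm, 4° C, 10 min.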

[1] = pH4.8, heat treatment of enzyme: no, reaction time 0 h
[2] = pH4.8, heat treatment of enzyme: no, reaction time 1 h
[3] = pH4.8, heat treatment of enzyme: no, reaction time 3 h
[4] = pH4.8, heat treatment of enzyme: no, reaction time 6 h
[5] = pH4.8, heat treatment of enzyme: yes, reaction time 6 h
[6] = pH6.6, heat treatment of enzyme: no, reaction time 0 h
[7] = pH6.6, heat treatment of enzyme: no, reaction time 1 h
[8] = pH6.6, heat treatment of enzyme: no, reaction time 3 h
[9] = pH6.6, heat treatment of enzyme: no, reaction time 6 h
[10] = pH6.6, heat treatment of enzyme: yes, reaction time 6 h

O=c1c(-c2ccc(O)cc2)coc2cc(O[C@@H]3O[C@H](CO)[C@@H](O)[C@H](O)[C@H]3O)ccc12 [daidzin]
Decomposition efficiency of daidzin family in concentrated soybean protein (pH1.6, heat treatment of enzyme: no, reaction time 0 h): 52.5%
Decomposition efficiency of daidzin family in concentrated soybean protein (pH1.6, heat treatment of enzyme: no, reaction time 1 h): 53.0%
Decomposition efficiency of daidzin family in concentrated soybean protein (pH1.6, heat treatment of enzyme: no, reaction time 3 h): 55.0%
Decomposition efficiency of daidzin family in concentrated soybean protein (pH1.6, heat treatment of enzyme: no, reaction time 6 h): 57.2%
Decomposition efficiency of daidzin family in concentrated soybean protein (pH1.6, heat treatment of enzyme: yes, reaction time 6 h): 59.0%
Decomposition efficiency of daidzin family in roasted soy flour (pH2, heat treatment of enzyme no, reaction time 0 h): 49.1
Decomposition efficiency of daidzin family in roasted soy flour (pH2, heat treatment of enzyme no, reaction time 1 h): 47.6
Decomposition efficiency of daidzin family in roasted soy flour (pH2, heat treatment of enzyme no, reaction time 3 h): 50.3
Decomposition efficiency of daidzin family in roasted soy flour (pH2, heat treatment of enzyme no, reaction time 6 h): 53.1
Decomposition efficiency of daidzin family in roasted soy flour (pH2, heat treatment of enzyme yes, reaction time 6 h): 53.8
Decomposition efficiency of daidzin family in soymilk (pH2.3, heat treatment of enzyme: no, reaction time 0 h): 34.4%
Decomposition efficiency of daidzin family in soymilk (pH2.3, heat treatment of enzyme: no, reaction time 1 h): not detected
Decomposition efficiency of daidzin family in soymilk (pH2.3, heat treatment of enzyme: no, reaction time 3 h): not detected
Decomposition efficiency of daidzin family in soymilk (pH2.3, heat treatment of enzyme: no, reaction time 6 h): not detected
Decomposition efficiency of daidzin family in soymilk (pH2.3, heat treatment of enzyme: yes, reaction time 6 h): 38.8%
Decomposition efficiency of daidzin family in defatted soybean (pH2.6, heat treatment of enzyme: no, reaction time 0 h): 45.8%
Decomposition efficiency of daidzin family in defatted soybean (pH2.6, heat treatment of enzyme: no, reaction time 1 h): 37.5%
Decomposition efficiency of daidzin family in defatted soybean (pH2.6, heat treatment of enzyme: no, reaction time 3 h): 17.3%
Decomposition efficiency of daidzin family in defatted soybean (pH2.6, heat treatment of enzyme: no, reaction time 6 h): 16.9%
Decomposition efficiency of daidzin family in defatted soybean (pH2.6, heat treatment of enzyme: yes, reaction time 6 h): 48.0%
Decomposition efficiency of daidzin family in concentrated soybean protein (pH2.7, heat treatment of enzyme: no, reaction time 0 h): 52.5%
Decomposition efficiency of daidzin family in concentrated soybean protein (pH2.7, heat treatment of enzyme: no, reaction time 1 h): 12.9%
Decomposition efficiency of daidzin family in concentrated soybean protein (pH2.7, heat treatment of enzyme: no, reaction time 3 h): 12.5%
Decomposition efficiency of daidzin family in concentrated soybean protein (pH2.7, heat treatment of enzyme: no, reaction time 6 h): 9.3%
Decomposition efficiency of daidzin family in concentrated soybean protein (pH2.7, heat treatment of enzyme: yes, reaction time 6 h): 53.0%
Decomposition efficiency of daidzin family in roasted soy flour (pH3, heat treatment of enzyme no, reaction time 0 h): 49.1
Decomposition efficiency of daidzin family in roasted soy flour (pH3, heat treatment of enzyme no, reaction time 1 h): not detected
Decomposition efficiency of daidzin family in roasted soy flour (pH3, heat treatment of enzyme no, reaction time 3 h): not detected
Decomposition efficiency of daidzin family in roasted soy flour (pH3, heat treatment of enzyme no, reaction time 6 h): not detected
Decomposition efficiency of daidzin family in roasted soy flour (pH3, heat treatment of enzyme yes, reaction time 6 h): 49.0
Decomposition efficiency of daidzin family in defatted soybean (pH3.4, heat treatment of enzyme: no, reaction time 0 h): 45.8%
Decomposition efficiency of daidzin family in defatted soybean (pH3.4, heat treatment of enzyme: no, reaction time 1 h): not detected
Decomposition efficiency of daidzin family in defatted soybean (pH3.4, heat treatment of enzyme: no, reaction time 3 h): not detected
Decomposition efficiency of daidzin family in defatted soybean (pH3.4, heat treatment of enzyme: no, reaction time 6 h): not detected
Decomposition efficiency of daidzin family in defatted soybean (pH3.4, heat treatment of enzyme: yes, reaction time 6 h): 47.8%
Decomposition efficiency of daidzin family in soymilk (pH3.5, heat treatment of enzyme: no, reaction time 0 h): 34.4%
Decomposition efficiency of daidzin family in soymilk (pH3.5, heat treatment of enzyme: no, reaction time 1 h): not detected
Decomposition efficiency of daidzin family in soymilk (pH3.5, heat treatment of enzyme: no, reaction time 3 h): not detected
Decomposition efficiency of daidzin family in soymilk (pH3.5, heat treatment of enzyme: no, reaction time 6 h): not detected
Decomposition efficiency of daidzin family in soymilk (pH3.5, heat treatment of enzyme: yes, reaction time 6 h): 40.4%
Decomposition efficiency of daidzin family in concentrated soybean protein (pH3.7, heat treatment of enzyme: no, reaction time 0 h): 52.5%
Decomposition efficiency of daidzin family in concentrated soybean protein (pH3.7, heat treatment of enzyme: no, reaction time 1 h): not detected
Decomposition efficiency of daidzin family in concentrated soybean protein (pH3.7, heat treatment of enzyme: no, reaction time 3 h): not detected
Decomposition efficiency of daidzin family in concentrated soybean protein (pH3.7, heat treatment of enzyme: no, reaction time 6 h): not detected
Decomposition efficiency of daidzin family in concentrated soybean protein (pH3.7, heat treatment of enzyme: yes, reaction time 6 h): 52.5%
Decomposition efficiency of daidzin family in roasted soy flour (pH4, heat treatment of enzyme no, reaction time 0 h): 48.7
Decomposition efficiency of daidzin family in roasted soy flour (pH4, heat treatment of enzyme no, reaction time 1 h): not detected
Decomposition efficiency of daidzin family in roasted soy flour (pH4, heat treatment of enzyme no, reaction time 3 h): not detected
Decomposition efficiency of daidzin family in roasted soy flour (pH4, heat treatment of enzyme no, reaction time 6 h): not detected
Decomposition efficiency of daidzin family in roasted soy flour (pH4, heat treatment of enzyme yes, reaction time 6 h): 48.6
Decomposition efficiency of daidzin family in defatted soybean [1]: 43.5%
Decomposition efficiency of daidzin family in soymilk [1]: 34.9%
Decomposition efficiency of daidzin family in defatted soybean [2]: not detected
Decomposition efficiency of daidzin family in soymilk [2]: not detected
Decomposition efficiency of daidzin family in defatted soybean [3]: not detected
Decomposition efficiency of daidzin family in soymilk [3]: not detected
Decomposition efficiency of daidzin family in defatted soybean [4]: not detected
Decomposition efficiency of daidzin family in soymilk [4]: not detected
Decomposition efficiency of daidzin family in defatted soybean [5]: 37.1%
Decomposition efficiency of daidzin family in soymilk [5]: 41.2%
Decomposition efficiency of daidzin family in roasted soy flour (pH5, heat treatment of enzyme no, reaction time 0 h): 48.7
Decomposition efficiency of daidzin family in roasted soy flour (pH5, heat treatment of enzyme no, reaction time 1 h): not detected
Decomposition efficiency of daidzin family in roasted soy flour (pH5, heat treatment of enzyme no, reaction time 3 h): not detected
Decomposition efficiency of daidzin family in roasted soy flour (pH5, heat treatment of enzyme no, reaction time 6 h): not detected
Decomposition efficiency of daidzin family in roasted soy flour (pH5, heat treatment of enzyme yes, reaction time 6 h): 50.6
Decomposition efficiency of daidzin family in concentrated soybean protein (pH5.1, heat treatment of enzyme: no, reaction time 0 h): 52.5%
Decomposition efficiency of daidzin family in concentrated soybean protein (pH5.1, heat treatment of enzyme: no, reaction time 1 h): not detected
Decomposition efficiency of daidzin family in concentrated soybean protein (pH5.1, heat treatment of enzyme: no, reaction time 3 h): not detected
Decomposition efficiency of daidzin family in concentrated soybean protein (pH5.1, heat treatment of enzyme: no, reaction time 6 h): not detected
Decomposition efficiency of daidzin family in concentrated soybean protein (pH5.1, heat treatment of enzyme: yes, reaction time 6 h): 53.4%
Decomposition efficiency of daidzin family in defatted soybean (pH5.4, heat treatment of enzyme: no, reaction time 0 h): 43.5%
Decomposition efficiency of daidzin family in defatted soybean (pH5.4, heat treatment of enzyme: no, reaction time 1 h): not detected
Decomposition efficiency of daidzin family in defatted soybean (pH5.4, heat treatment of enzyme: no, reaction time 3 h): not detected
Decomposition efficiency of daidzin family in defatted soybean (pH5.4, heat treatment of enzyme: no, reaction time 6 h): not detected
Decomposition efficiency of daidzin family in defatted soybean (pH5.4, heat treatment of enzyme: yes, reaction time 6 h): not detected
Decomposition efficiency of daidzin family in soymilk (pH6.2, heat treatment of enzyme: no, reaction time 0 h): 34.9%
Decomposition efficiency of daidzin family in soymilk (pH6.2, heat treatment of enzyme: no, reaction time 1 h): not detected
Decomposition efficiency of daidzin family in soymilk (pH6.2, heat treatment of enzyme: no, reaction time 3 h): not detected
Decomposition efficiency of daidzin family in soymilk (pH6.2, heat treatment of enzyme: no, reaction time 6 h): not detected
Decomposition efficiency of daidzin family in soymilk (pH6.2, heat treatment of enzyme: yes, reaction time 6 h): 40.6%
Decomposition efficiency of daidzin family in roasted soy flour (pH6.5, heat treatment of enzyme no, reaction time 0 h): 48.4
Decomposition efficiency of daidzin family in roasted soy flour (pH6.5, heat treatment of enzyme no, reaction time 1 h): not detected
Decomposition efficiency of daidzin family in roasted soy flour (pH6.5, heat treatment of enzyme no, reaction time 3 h): not detected
Decomposition efficiency of daidzin family in roasted soy flour (pH6.5, heat treatment of enzyme no, reaction time 6 h): not detected
Decomposition efficiency of daidzin family in roasted soy flour (pH6.5, heat treatment of enzyme yes, reaction time 6 h): 51.9
Decomposition efficiency of daidzin family in concentrated soybean protein [6]: 52.1%
Decomposition efficiency of daidzin family in defatted soybean [6]: 43.6%
Decomposition efficiency of daidzin family in concentrated soybean protein [7]: 5.0%
Decomposition efficiency of daidzin family in defatted soybean [7]: not detected
Decomposition efficiency of daidzin family in concentrated soybean protein [8]: not detected
Decomposition efficiency of daidzin family in defatted soybean [8]: not detected
Decomposition efficiency of daidzin family in concentrated soybean protein [9]: not detected
Decomposition efficiency of daidzin family in defatted soybean [9]: not detected
Decomposition efficiency of daidzin family in concentrated soybean protein [10]: 55.1%
Decomposition efficiency of daidzin family in defatted soybean [10]: 9.3%
Decomposition efficiency of daidzin family in soymilk (pH7.2, heat treatment of enzyme: no, reaction time 0 h): 34.9%
Decomposition efficiency of daidzin family in soymilk (pH7.2, heat treatment of enzyme: no, reaction time 1 h): not detected
Decomposition efficiency of daidzin family in soymilk (pH7.2, heat treatment of enzyme: no, reaction time 3 h): not detected
Decomposition efficiency of daidzin family in soymilk (pH7.2, heat treatment of enzyme: no, reaction time 6 h): not detected
Decomposition efficiency of daidzin family in soymilk (pH7.2, heat treatment of enzyme: yes, reaction time 6 h): 41.5%
Decomposition efficiency of daidzin family in defatted soybean (pH7.8, heat treatment of enzyme: no, reaction time 0 h): 44.7%
Decomposition efficiency of daidzin family in defatted soybean (pH7.8, heat treatment of enzyme: no, reaction time 1 h): 13.3%
Decomposition efficiency of daidzin family in defatted soybean (pH7.8, heat treatment of enzyme: no, reaction time 3 h): 10.1%
Decomposition efficiency of daidzin family in defatted soybean (pH7.8, heat treatment of enzyme: no, reaction time 6 h): 9.4%
Decomposition efficiency of daidzin family in defatted soybean (pH7.8, heat treatment of enzyme: yes, reaction time 6 h): 41.6%
Decomposition efficiency of daidzin family in roasted soy flour (pH8.5, heat treatment of enzyme no, reaction time 0 h): 54.1
Decomposition efficiency of daidzin family in roasted soy flour (pH8.5, heat treatment of enzyme no, reaction time 1 h): 20.4
Decomposition efficiency of daidzin family in roasted soy flour (pH8.5, heat treatment of enzyme no, reaction time 3 h): 13.3
Decomposition efficiency of daidzin family in roasted soy flour (pH8.5, heat treatment of enzyme no, reaction time 6 h): 10.2
Decomposition efficiency of daidzin family in roasted soy flour (pH8.5, heat treatment of enzyme yes, reaction time 6 h): 58.8
Decomposition efficiency of daidzin family in concentrated soybean protein (pH8.6, heat treatment of enzyme: no, reaction time 0 h): 56.1%
Decomposition efficiency of daidzin family in concentrated soybean protein (pH8.6, heat treatment of enzyme: no, reaction time 1 h): 50.8%
Decomposition efficiency of daidzin family in concentrated soybean protein (pH8.6, heat treatment of enzyme: no, reaction time 3 h): 45.0%
Decomposition efficiency of daidzin family in concentrated soybean protein (pH8.6, heat treatment of enzyme: no, reaction time 6 h): 34.5%
Decomposition efficiency of daidzin family in concentrated soybean protein (pH8.6, heat treatment of enzyme: yes, reaction time 6 h): 59.1%
Decomposition efficiency of daidzin family in soymilk (pH11.6, heat treatment of enzyme: no, reaction time 0 h): 38.8%
Decomposition efficiency of daidzin family in soymilk (pH11.6, heat treatment of enzyme: no, reaction time 1 h): not detected
Decomposition efficiency of daidzin family in soymilk (pH11.6, heat treatment of enzyme: no, reaction time 3 h): not detected
Decomposition efficiency of daidzin family in soymilk (pH11.6, heat treatment of enzyme: no, reaction time 6 h): not detected
Decomposition efficiency of daidzin family in soymilk (pH11.6, heat treatment of enzyme: yes, reaction time 6 h): 44.6%
